Laboratory results from patent US4711895A, “4-hydroxy-2-cyclopentenone, process for production thereof, pharmaceutical composition comprising it” (Teijin Limited, priority 1984, dated 1987).
In brackets after ≈: the same amount, converted by molar mass. Read-outs that look alike come from different tables or passages of the source.

What was measured:
L1210 leukemia cells = assay: Action of inhibiting proliferation of L1210 leukemia cell; type: cell-based; conditions: RPMI medium, 10% FCS, 37° C., 4 days, trypan blue
Protocol: Measurement of the action of inhibiting Proliferation of L1210 leukemia cell
L1210 leukemia cells were added to an RPMI medium containing 10% FCS (fetal calf serum), and the concentration of the cells was adjusted to […]. Each of the test compounds shown in Table I was dissolved in 99.5% ethanol. Prior to use, the final concentration of the ethanol solution was adjusted to less than 0.1%, and it was added to the culture medium. The culture medium was then maintained at 37° C. in a stationary condition for 4 days. After the cultivation, the number of surviving cells was measured by dyeing with trypan blue. As a control, 0.1% ethanol was used. A dose-reaction curve plotted from the ratios of proliferation against the control, and IC50 was determined.

[1] = test system: P388 mouse leukemia cells; assay: Antitumor effect on P388 mouse leukemia tumor in ICR mice; type: in vivo; conditions: i.p., 5 days
Protocol: Measurement of the antitumor effect on P338 mouse leukemia tumor
1×10^5 P388 mouse leukemia cells were intraperitoneally administered to ICR mice. After the lapse of 24 hours, each of the test compounds shown in Table II was intraperitoneally administered to the mice for 5 days. The periods of survival of these animals were examined and the increase of their life span (ILS%) were determined.

[2] = Mus musculus, 96 h, read-out: IC50

Structure (SMILES)	IC50 (L1210 leukemia cells; [2]) [µg/mL]	Increase of life span ILS (%) ([1]; 5 mg/kg/day)	Survival ([1]; 5 mg/kg/day) [days]	Increase of life span ILS (%) ([1]; 10 mg/kg/day)	Survival ([1]; 10 mg/kg/day) [days]	Increase of life span ILS (%) ([1]; 15 mg/kg/day)	Survival ([1]; 15 mg/kg/day) [days]	IC50 (L1210 leukemia cells) [µg/mL]	Increase of life span ILS (%) ([1]; 2.5 mg/kg/day)	Survival ([1]; 2.5 mg/kg/day) [days]
CCCCCCCC[C@@]1(O)C=CC(=O)/C1=C/CCCCCC(=O)OC [Compound 142, (4R)-5-[(E)-6-methoxycarbonylhexylidene]-4-hydroxy-4-octyl-2-cyclopentenone]	0.15 (≈ 0.428 µM)	5.4	10.3 ± 0.5	15.3	11.3 ± 0.5	–	–	–	–	–
CCCCCCCC[C@@]1(O)C=CC(=O)/C1=C\CCCCCC(=O)OC [Compound 144, (4R)-5-[(Z)-6-methoxycarbonylhexylidene]-4-hydroxy-4-octyl-2-cyclopentenone]	0.15 (≈ 0.428 µM)	2.9	10.7 ± 0.5	17.3	12.2 ± 1.2	12.5	11.7 ± 0.5	–	–	–
O=C1C=CC(O)(CCCCOc2ccccc2)C1=C/C=C/C(O)CCCO (stereo not drawn) [Compound 148]	–	32.7	13.0 ± 1.4	29.6	12.7 ± 0.7	–	–	1.5 (≈ 4.03 µM)	15.3	11.3 ± 0.5
COC(=O)CCCCCC=C1C(=O)C(Cl)=CC1(O)CCCc1ccc(OC)c(OC)c1 (stereo not drawn) [Compound 152, 2-chloro-4-hydroxy-4-[3-(3,4-dimethoxyphenyl)propyl]-5-(6-methoxycarbonylhexylidene)-2-cyclopentenone]	0.06 (≈ 0.133 µM)	–	–	19.4	11.7 ± 1.1	–	–	–	–	–
CCCCCCCCC1(O)C=C(Cl)C(=O)C1=CCCCCCC(=O)OC (stereo not drawn) [Compound 154, 2-chloro-4-hydroxy-5-(6-methoxycarbonylhexylidene)-4-octyl-2-cyclopentenone]	0.03 (≈ 0.0779 µM)	–	–	7.1	10.5 ± 0.8	–	–	–	–	–
COC(=O)CCCCC/C=C1\C(=O)C(Cl)=CC1(O)CCC(C)CCCC(C)C (stereo not drawn) [Compound 156, 2-chloro-4-(3,7-dimethyloctyl)-4-hydroxy-5-[(Z)-6-methoxycarbonylhexylidene]-2-cyclopentenone]	0.035 (≈ 0.0847 µM)	–	–	–	–	–	–	–	–	–
COC(=O)CCCCC/C=C1/C(=O)C(Cl)=CC1(O)CCC(C)CCCC(C)C (stereo not drawn) [Compound 158, 2-chloro-4-(3,7-dimethyloctyl)-4-hydroxy-5-[(E)-6-methoxycarbonylhexylidene]-2-cyclopentenone]	0.025 (≈ 0.0605 µM)	–	–	–	–	–	–	–	–	–
COC(=O)CCCCCC(O)C1C(=O)C(Cl)=CC1(O)CCCc1ccc(OC)c(OC)c1 (stereo not drawn) [Compound 226, 2-chloro-4-hydroxy-4-[3-(3,4-dimethoxyphenyl)propyl]-5-(1-hydroxy-6-methoxycarbonylhexyl)-2-cyclopentenone]	0.2 (≈ 0.426 µM)	10.0	11.0 ± 0	–	–	–	–	–	–	–
CC(C)=CCCC(C)=CC(O)C1C(=O)C=CC1(O)CCCCOc1ccccc1 (stereo not drawn) [Compound 228, 4-(4-phenoxybutyl)-4-hydroxy-5-(3,7-dimethyl-1-hydroxy-2,6-octadiene)-2-cyclopentenone]	0.4 (≈ 1 µM)	–	–	–	–	4.1	10.2 ± 0.9	–	–	–
